Source: Sander's compilation of Henry's law constants (doi:10.1063/1.555654)

Assay: Henry solubility constant Hcp at 298.15 K (mol/(m3 Pa))
Details: reference: Mackay and Shiu (1981)

SMILES	Henry solubility constant Hcp
Clc1cc(Cl)c(Cl)c(Cl)c1 [1,2,3,5-tetrachlorobenzene]	0.0063
Clc1cccc(Cl)c1Cl [1,2,3-trichlorobenzene]	0.0079
Clc1ccc(Cl)cc1 [1,4-dichlorobenzene]	0.0042
Clc1cccc2ccccc12 [1-chloronaphthalene]	0.0028
Cc1cccc2ccccc12 [1-methylnaphthalene]	0.038
c1ccc2c(c1)Cc1ccccc1-2 [2,3-benzindene]	0.099
Clc1ccc2ccccc2c1 [2-chloronaphthalene]	0.031
c1cc2c3c(cccc3c1)CC2 [acenaphthene]	0.0064
c1ccc2cc3ccccc3cc2c1 [anthracene]	0.014
c1ccc(-c2ccccc2)cc1 [biphenyl]	0.033
Brc1ccccc1 [bromobenzene]	0.004
Clc1ccccc1 [chlorobenzene]	0.0032
c1ccc2c(c1)ccc1ccccc12 [phenanthrene]	0.27
